Reference: PMC3552485 (ACS Chemical Biology, 2012)

Target: T1, TarO (N-acetylglucosamine-1-phosphate transferase) (Staphylococcus aureus, UniProt Q2G060)
T1 sequence (Q2G060 1-351): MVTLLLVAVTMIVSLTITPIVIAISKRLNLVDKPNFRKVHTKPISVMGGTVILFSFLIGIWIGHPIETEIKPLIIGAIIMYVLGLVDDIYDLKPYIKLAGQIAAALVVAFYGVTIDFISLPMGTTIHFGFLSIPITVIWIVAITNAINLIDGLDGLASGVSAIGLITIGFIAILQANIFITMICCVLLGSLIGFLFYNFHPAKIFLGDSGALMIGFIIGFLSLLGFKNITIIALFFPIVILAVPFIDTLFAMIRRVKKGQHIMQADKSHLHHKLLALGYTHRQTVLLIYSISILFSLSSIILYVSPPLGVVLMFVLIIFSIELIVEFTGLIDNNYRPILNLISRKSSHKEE
Format: biochemical

Clc1ccccc1CN1CCc2sccc2C1 [ticlopidine]
IC50: 238 ± 14 µM
